Measurements from patent US20030176456A1, “Methods for reducing alcohol cravings in chronic alcoholics” (priority 2001, published 2003).
Like-named read-outs stand apart in the source and are kept apart here.

Legend:
α6β3γ2 GABAA receptor = target: T1, α6β3γ2 GABAA receptor (Homo sapiens, UniProt P18507+Q16445); experiment: Binding affinity at recombinant GABAA receptors (Ltk cells stably transfected); settings: recombinant αxβ3γ2; read-out: Ki α6
T1 construct: expressed in transfected cells

α5β3γ2 GABAA receptor = target: T2, α5β3γ2 GABAA receptor (Homo sapiens, UniProt P18507+P31644); experiment: as above
T2 construct: expressed in transfected cells

α2β3γ2 GABAA receptor = target: T3, α2β3γ2 GABAA receptor (Homo sapiens, UniProt P18507+P47869); experiment: as above
T3 construct: expressed in transfected cells

P rats = experiment: EtOH and sucrose responding after oral (gavage) administration; assay type: in vivo, rat; settings: for responding for sucrose: oral (gavage) 75 mg/kg; for EtOH responding / EtOH responding 24 hours after administration: oral (gavage); for EtOH responding: βCCt 15 & 30 mg/kg, 3-PBC 30-75 mg/kg, naltrexone 30-75 mg/kg; for EtOH responding 24 hours after administration: βCCt 15 & 75 mg/kg
Description: In this study we compared the suppressant effect of βCCt and 3-PBC with naltrexone, a currently used alcohol antagonist on the market. As it is shown in FIG. 29A-B, orally administered βCCt can reduce alcohol responding, however, the effects are not dose related. In addition, 24 hr after administration of βCCt, it continues to reduce alcohol responding with selected doses. […] The suppressant effects of naltrexone in reducing alcohol responding are also dissipated 24 hr after the administration. […] Unlike naltrexone, the suppressant effects observed by βCCt and 3-PBC are selective for alcohol, and not reinforcers in general.

[1] = system: alcohol-preferring (P) rats; experiment: Operant self-administration, concurrent FR4 schedule for EtOH and saccharin; assay type: in vivo, rat; settings: for EtOH-maintained responding / saccharin-maintained responding: bilateral infusion 5-40 μg in NACC/caudate putamen (neuroanatomical control)
Protocol: Behavioral testing was conducted in 15 standard operant chambers (Coulbourn Instruments) equipped with two removable levers and two dipper fluid delivery systems enclosed in sound-attenuated cubicles as previously described (June et al., 1998a,b). A concurrent fixed-ratio schedule was employed to investigate the capacity of systemic and direct microinjections of 3-PBC in the CNS to modify EtOH and saccharin-maintained responding. The specific details of these procedures have recently been described (June et al., 1998; 1999; 2001). In brief, rats were initially trained to orally self-administer EtOH and water in daily 60 min sessions on a concurrent FRI schedule in a two-lever choice situation. After a period of stabilization on the FRI schedule, the response requirement was increased to a concurrent FR4 schedule and the water reinforcer was replaced with saccharin (0.025-0.05% w/v). The importance of alternative and concurrently presented reinforcers in examining the positive reinforcing properties of drugs of abuse has been discussed previously (Meisch and Lemaire, 1993; June et al., 2001; June in press).
3-PBC was administered 15 min before the operant session to allow for optimal absorption and CNS distribution. […] The duration of the operant sessions was 60 min, however, subjects were tested at 24 and 48 hour post drug administration to determine any residual drug effects. A minimum of 72-96 hours were allocated between drug treatments to permit animals to return to baseline levels. This period prevented confounding of drug treatments due to residual effects (for details see June et al., 1998b).
Guide cannulas were stereotaxically implanted bilaterally in the anterior (AP +0.48; ML ±1.6; DV −7.2, with 6° lateral angle) (n=8) and medial (AP −0.26; ML ±2.5; DV −7.0) (n=6) VP. The neuroanatomical control rats were bilaterally implanted in either the caudate putamen or NACC. The coordinates for the caudate putamen were AP +1.5; ML ±2.5; DV 4.2 (n=3). In the NACC group some rats were implanted in the shell [AP +1.4; ML +0.8; DV −6.0] (n=3) while others were implanted in the core [AP +1.4; ML ±1.7; DV −5.71] (n=3). All coordinates are given in millimeters relative to Bregma based on the Paxinos and Watson (1998) atlas. Subjects were given 7 days to recover from surgery before returning to training in the operant chamber. The 3-PBC infusions were delivered immediately before the operant session with a Harvard infusion pump in aCSF (composition in mM: NaCl, 120; KCl, 4.8; KH2PO4, 1.2; MgSO4, 1.2; NaHCO3, 25; CaCl2, 2.5; d-glucose, 10) as previously described (for details see June et al., 2001).
Statistical Analysis The operant maintained responding data were analyzed by a single factor repeated measures ANOVA with drug treatment (i.e., dose) as the independent factor. The dependent variables were EtOH and saccharin-maintained responding. Each dependent variable was analyzed separately. Post-hoc comparisons between individual drug treatments were made using the Newman Keuls Test in all experiments. In systemic studies, drug treatment comparisons were made against the no injection (e.g., baseline=BL) and Tween-20 vehicle control conditions. In the microinjection studies, drug treatment comparisons were made against the no injection control condition (e.g., baseline=BL) and aCSF control condition. All microinjection data were obtained and analyzed following correct histological verification under a light microscope. To determine the time course of antagonism across the 60 min session, a single factor ANOVA was conducted at each of the six-10 min intervals on the cumulative response data for the respective drug treatment conditions relative to the pooled controlled conditions. EtOH and saccharin maintained responding data were analyzed separately. Post-hoc analyses were performed on the cumulative interval data using the least significant difference (LSD) test. […]

selected rodent lines = experiment: Plus-maze test in selected rodent lines; assay type: in vivo; settings: particularly at moderate to high doses (>7.5 mg/kg)
GABAA α3β3γ2 receptors = experiment: Xenopus oocyte expression assay, modulation of GABA current; assay type: cell-based, rat; settings: saturating 1-10 μM modulator with EC50 GABA (30 μM); mean±S.D.
α3β3γ2 GABAA receptor = target: T4, α3β3γ2 GABAA receptor (Homo sapiens, UniProt P18507+P34903); experiment: Binding affinity at recombinant GABAA receptors (Ltk cells stably transfected)
T4 construct: expressed in transfected cells

α1β3γ2 GABAA receptor = target: T5, α1β3γ2 GABAA receptor (Homo sapiens, UniProt P14867+P18507); experiment: as above
T5 construct: expressed in transfected cells

[2] = Rowlett et al., submitted; cited from earlier work
squirrel monkeys = settings: Rowlett et al., unpublished observation; cited from earlier work
[3] = bilateral infusion in ventral pallidum (VP), 3-PBC 0.5-40 μg, βCCt 5-40 μg
[4] = i.p. 15 min before 60 min session, 3-PBC 1-20 mg/kg, βCCt 5-40 mg/kg
[5] = i.p., 3-PBC 1-10 mg/kg, βCCt 5-40 mg/kg

T5 sequence (P14867 28-456): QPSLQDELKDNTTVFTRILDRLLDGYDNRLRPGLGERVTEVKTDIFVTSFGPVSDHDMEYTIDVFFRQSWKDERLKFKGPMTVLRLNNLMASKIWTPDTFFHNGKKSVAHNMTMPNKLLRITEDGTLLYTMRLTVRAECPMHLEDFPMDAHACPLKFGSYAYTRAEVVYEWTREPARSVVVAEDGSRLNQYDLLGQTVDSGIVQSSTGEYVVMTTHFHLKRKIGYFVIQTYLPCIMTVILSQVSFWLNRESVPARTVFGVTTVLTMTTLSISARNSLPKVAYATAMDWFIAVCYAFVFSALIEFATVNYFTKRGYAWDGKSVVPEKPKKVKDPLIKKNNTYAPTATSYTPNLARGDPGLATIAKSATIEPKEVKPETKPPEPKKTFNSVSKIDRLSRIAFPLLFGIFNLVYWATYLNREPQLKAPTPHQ
T5 sequence (P28472 26-473 partner): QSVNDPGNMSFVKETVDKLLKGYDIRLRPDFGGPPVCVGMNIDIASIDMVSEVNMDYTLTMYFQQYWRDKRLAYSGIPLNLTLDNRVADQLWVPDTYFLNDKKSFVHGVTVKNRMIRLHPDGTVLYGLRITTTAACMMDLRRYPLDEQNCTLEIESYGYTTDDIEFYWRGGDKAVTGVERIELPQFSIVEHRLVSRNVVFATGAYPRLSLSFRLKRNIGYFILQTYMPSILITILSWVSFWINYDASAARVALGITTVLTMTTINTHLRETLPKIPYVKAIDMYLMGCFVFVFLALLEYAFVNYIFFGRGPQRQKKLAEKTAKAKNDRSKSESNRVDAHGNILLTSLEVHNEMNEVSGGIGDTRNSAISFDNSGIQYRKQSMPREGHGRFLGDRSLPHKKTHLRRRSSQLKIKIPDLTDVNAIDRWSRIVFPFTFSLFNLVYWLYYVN
T5 sequence (P18507 40-475): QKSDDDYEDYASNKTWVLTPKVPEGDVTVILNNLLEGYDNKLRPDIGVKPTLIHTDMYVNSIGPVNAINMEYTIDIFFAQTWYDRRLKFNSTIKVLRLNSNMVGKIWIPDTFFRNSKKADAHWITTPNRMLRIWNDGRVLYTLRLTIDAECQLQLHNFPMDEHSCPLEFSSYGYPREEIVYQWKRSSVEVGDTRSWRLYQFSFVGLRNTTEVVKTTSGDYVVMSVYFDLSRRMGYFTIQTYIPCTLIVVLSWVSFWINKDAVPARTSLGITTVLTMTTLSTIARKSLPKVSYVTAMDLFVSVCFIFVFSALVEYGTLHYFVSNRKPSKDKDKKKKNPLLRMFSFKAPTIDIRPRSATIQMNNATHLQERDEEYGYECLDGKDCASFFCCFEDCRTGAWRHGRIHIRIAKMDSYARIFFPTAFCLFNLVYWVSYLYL
T2 sequence (P31644 32-462): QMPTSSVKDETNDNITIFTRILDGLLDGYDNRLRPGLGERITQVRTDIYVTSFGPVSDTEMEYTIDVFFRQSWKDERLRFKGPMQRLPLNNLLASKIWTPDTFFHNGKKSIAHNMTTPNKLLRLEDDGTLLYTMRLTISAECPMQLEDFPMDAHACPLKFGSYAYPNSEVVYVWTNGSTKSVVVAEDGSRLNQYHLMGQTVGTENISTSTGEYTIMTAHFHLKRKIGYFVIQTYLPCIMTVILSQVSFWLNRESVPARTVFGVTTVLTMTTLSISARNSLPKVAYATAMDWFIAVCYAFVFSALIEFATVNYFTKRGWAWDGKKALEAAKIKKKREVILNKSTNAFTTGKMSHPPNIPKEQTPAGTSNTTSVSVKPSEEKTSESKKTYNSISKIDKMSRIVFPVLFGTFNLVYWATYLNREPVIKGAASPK
T2 sequence (P28472 26-473 partner): as the sequence (P28472 26-473 partner) above
T2 sequence (P18507 40-475): as the sequence (P18507 40-475) above
T4 sequence (P34903 29-492): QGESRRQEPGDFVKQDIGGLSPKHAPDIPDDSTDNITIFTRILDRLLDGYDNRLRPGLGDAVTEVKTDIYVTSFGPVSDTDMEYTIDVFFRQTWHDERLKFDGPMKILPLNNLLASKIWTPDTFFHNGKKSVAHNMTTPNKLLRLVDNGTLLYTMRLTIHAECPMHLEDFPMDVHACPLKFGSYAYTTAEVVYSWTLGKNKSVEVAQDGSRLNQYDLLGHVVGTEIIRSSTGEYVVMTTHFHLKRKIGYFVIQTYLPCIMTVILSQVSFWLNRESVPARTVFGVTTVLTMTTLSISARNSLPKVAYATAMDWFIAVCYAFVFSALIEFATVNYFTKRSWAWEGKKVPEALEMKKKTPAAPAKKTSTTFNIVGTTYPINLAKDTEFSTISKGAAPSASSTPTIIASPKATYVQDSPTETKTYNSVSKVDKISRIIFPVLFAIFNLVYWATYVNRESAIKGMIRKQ
T4 sequence (P28472 26-473 partner): as the sequence (P28472 26-473 partner) above
T4 sequence (P18507 40-475): as the sequence (P18507 40-475) above
T3 sequence (P47869 29-451): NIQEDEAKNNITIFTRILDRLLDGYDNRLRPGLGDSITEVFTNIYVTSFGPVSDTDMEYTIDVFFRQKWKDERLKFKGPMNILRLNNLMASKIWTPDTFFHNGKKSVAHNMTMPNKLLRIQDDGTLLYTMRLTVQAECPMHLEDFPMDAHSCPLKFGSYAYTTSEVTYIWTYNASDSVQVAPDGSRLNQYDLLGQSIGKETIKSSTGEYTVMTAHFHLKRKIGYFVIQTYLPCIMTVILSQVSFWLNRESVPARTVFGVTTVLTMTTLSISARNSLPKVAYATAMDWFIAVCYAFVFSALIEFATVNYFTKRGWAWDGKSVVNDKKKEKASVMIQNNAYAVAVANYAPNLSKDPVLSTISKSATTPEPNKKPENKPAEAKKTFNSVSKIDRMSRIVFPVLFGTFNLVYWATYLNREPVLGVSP
T3 sequence (P28472 26-473 partner): as the sequence (P28472 26-473 partner) above
T3 sequence (P18507 40-475): as the sequence (P18507 40-475) above
T1 sequence (Q16445 20-453): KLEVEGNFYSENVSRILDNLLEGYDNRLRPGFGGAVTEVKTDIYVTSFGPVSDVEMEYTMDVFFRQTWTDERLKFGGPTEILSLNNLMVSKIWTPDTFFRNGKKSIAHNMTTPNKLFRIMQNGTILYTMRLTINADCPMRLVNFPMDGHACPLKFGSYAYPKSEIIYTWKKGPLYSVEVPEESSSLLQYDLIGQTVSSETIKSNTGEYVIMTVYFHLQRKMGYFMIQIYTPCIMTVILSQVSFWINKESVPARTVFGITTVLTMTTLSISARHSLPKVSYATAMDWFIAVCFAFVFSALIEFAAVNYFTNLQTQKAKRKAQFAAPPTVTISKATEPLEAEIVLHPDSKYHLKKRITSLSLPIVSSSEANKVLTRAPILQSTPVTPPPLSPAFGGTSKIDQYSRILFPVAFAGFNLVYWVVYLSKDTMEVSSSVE
T1 sequence (P28472 26-473 partner): as the sequence (P28472 26-473 partner) above
T1 sequence (P18507 40-475): as the sequence (P18507 40-475) above

| SMILES | Ki (α6β3γ2 GABAA receptor) [µM] | responding for sucrose (P rats) | EtOH responding (P rats) | EtOH responding 24 hours after administration (P rats) | EtOH-maintained responding [1] | saccharin-maintained responding [1] | saccharin-maintained responding, total session ([1]; bilateral infusion in VP) | EtOH-maintained responding, total session [1, 3] | EtOH-maintained responding, total session [1, 4] | saccharin-maintained responding, total session [1, 5] | anxiolytic effects in the plus-maze test (selected rodent lines) | % of GABA response, α3 (GABAA α3β3γ2 receptors) [%] | further results |
| --- | --- | --- | --- | --- | --- | --- | --- | --- | --- | --- | --- | --- | --- |
| CC(C)(C)OC(=O)c1cc2c(cn1)[nH]c1ccccc12 [βCCt, β-carboline-3-carboxylate t-butyl ester] | > 1 | fails to alter responding for sucrose | significantly reduces EtOH responding | significantly reduce EtOH responding | none of the βCCt treatments altered | none of the βCCt treatments altered | did not alter | dose-dependently reduced | all doses significantly suppressed | without effect | capable of producing anxiolytic effects | 108±6 | Ki (α5β3γ2 GABAA receptor): 0.111 µM; Ki (α2β3γ2 GABAA receptor): 0.015 µM; suppression of EtOH responding 24 hr post-drug ([1]; i.p. 40 mg/kg, 24 hr post-drug administration): 76 % of control levels; Ki (α3β3γ2 GABAA receptor): 0.0189 µM; Ki (α1β3γ2 GABAA receptor): 0.00072 µM; fold more selective than flumazenil at α1 sites (α1β3γ2 GABAA receptor; binding selectivity): over 20 fold; fold more selective than zolpidem at α1 sites (α1β3γ2 GABAA receptor; binding selectivity): 3.5 fold |
| CCCOc1cc2c(cn1)[nH]c1ccccc12.Cl [3-PBC, 3-Propoxy-β-carboline hydrochloride] | > 1 | fails to alter responding for sucrose | dose-dependently reduces EtOH responding | dissipated | without effect | without effect | only the 40 μg dose significantly reduced saccharin responding | dose-dependently reduced | significant dose-related reduction | significant elevation | capable of producing anxiolytic effects | 119±6 | Ki (α5β3γ2 GABAA receptor; recombinant αxβ3γ2, read-out: Ki α5): 0.591 µM; Ki (α2β3γ2 GABAA receptor; recombinant αxβ3γ2, read-out: Ki α2): 0.0523 µM; antagonism in zolpidem discrimination [2]: surmountable antagonism; cumulative within session alcohol responding ([1]; VP infusion, initial 10 and 20 min intervals): significant reduction; saccharin-maintained responding, total session ([1]; i.p. 20 mg/kg): significantly suppressed; cumulative within session EtOH responding ([1]; i.p., first 10, 20 and 30 min intervals): suppressed the initiation of EtOH responding; activity in observational studies vs saline controls (squirrel monkeys): inactive; Ki (α3β3γ2 GABAA receptor; recombinant αxβ3γ2, read-out: Ki α3): 0.0688 µM; selectivity for α1 relative to α2 (α1β3γ2 GABAA receptor; binding selectivity): 9.8 fold; selectivity for α1 relative to α3 (α1β3γ2 GABAA receptor; binding selectivity): 13 fold; selectivity for α1 relative to α5 (α1β3γ2 GABAA receptor; binding selectivity): 111 fold; Ki (α1β3γ2 GABAA receptor; recombinant αxβ3γ2, read-out: Ki α1): 0.0053 µM |
